Measured values published in the supplement of paper PMC11061612.

What was measured:
Assay in all cases: combination Emax (second highest fraction inhibited in the dose matrix, 72 h); higher = more inhibition; extreme values may be limits of the assay
NCI-H226 (Mesothelioma) = system: NCI-H226 (Mesothelioma)
Procedure, shortened: (§1)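 Bliss excess equals the observed combination effect minus the expected value EA + EB − EA·EB, where EA and EB are the effects of each agent alone. Combination Emax is the second-highest inhibition within the matrix. Inhibition was scaled from CellTiter-Glo 2.0 luminescence, with 0 set by vehicle wells and 1 by blank wells, after 72 hours of two-drug dosing of cells plated in 1536-well plates.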

[1] = system: SiHa (Cervical Carcinoma)
Procedure, shortened: as §1

[2] = system: MOLP-8 (Plasma Cell Myeloma)
Procedure, shortened: as §1

IST-MEL1 (Melanoma) = system: IST-MEL1 (Melanoma)
Procedure, shortened: as §1

[3] = system: COR-L88 (Small Cell Lung Carcinoma)
Procedure, shortened: as §1

[4] = system: SAT (Head and Neck Carcinoma)
Procedure, shortened: as §1

[5] = system: MOLT-13 (T-Lymphoblastic Leukemia)
Procedure, shortened: as §1

GAK (Melanoma) = system: GAK (Melanoma)
Procedure, shortened: as §1

[6] = system: NMC-G1 (Low Grade Glioma)
Procedure, shortened: as §1

[7] = system: SK-CO-1 (Colorectal Carcinoma)
Procedure, shortened: as §1

KALS-1 (Glioblastoma) = system: KALS-1 (Glioblastoma)
Procedure, shortened: as §1

[8] = system: PL4 (Pancreatic Carcinoma)
Procedure, shortened: as §1

[9] = system: SKG-IIIa (Cervical Carcinoma)
Procedure, shortened: as §1

[10] = system: MS-1 (Small Cell Lung Carcinoma)
Procedure, shortened: as §1

[11] = system: C-33-A (Cervical Carcinoma)
Procedure, shortened: as §1

[12] = system: NCI-H1341 (Small Cell Lung Carcinoma)
Procedure, shortened: as §1

[13] = system: CL-11 (Colorectal Carcinoma)
Procedure, shortened: as §1

[14] = system: NCI-H3118 (Head and Neck Carcinoma)
Procedure, shortened: as §1

[15] = system: KP-4 (Pancreatic Carcinoma)
Procedure, shortened: as §1

[16] = system: HT-1080 (Other Solid Carcinomas)
Procedure, shortened: as §1

| Structure (SMILES) | combination Emax (NCI-H226 (Mesothelioma)) | combination Emax [1] | combination Emax [2] | combination Emax (IST-MEL1 (Melanoma)) | combination Emax [3] | combination Emax [4] | combination Emax [5] | combination Emax (GAK (Melanoma)) | combination Emax [6] | combination Emax [7] | combination Emax (KALS-1 (Glioblastoma)) | combination Emax [8] | combination Emax [9] | combination Emax [10] | combination Emax [11] | combination Emax [12] | combination Emax [13] | combination Emax [14] | combination Emax [15] | combination Emax [16] |
| --- | --- | --- | --- | --- | --- | --- | --- | --- | --- | --- | --- | --- | --- | --- | --- | --- | --- | --- | --- | --- |
| CC1(C)CCC(CN2CCN(c3ccc(C(=O)NS(=O)(=O)c4ccc(NCC5CCOCC5)c([N+](=O)[O-])c4)c(Oc4cnc5[nH]ccc5c4)c3)CC2)=C(c2ccc(Cl)cc2)C1 [Venetoclax] + C[C@@H](Nc1cc(F)cc(F)c1)c1cc(C(=O)N(C)C)cc2c(=O)cc(N3CCOCC3)oc12 [AZD8186] (first compound max 1 µM, 7x7, partner max 3 µM) | 0.0928 | 0.243 | 0.455 | 0.336 | 0.617 | 0.345 | 0.431 | 0.242 | 0.171 | 0.187 | 0.741 | 0.243 | 0.168 | 0.32 | 0.154 | 0.583 | 0.083 | 0.0963 | 0.421 | 0.164 |
| CC1(C)CCC(CN2CCN(c3ccc(C(=O)NS(=O)(=O)c4ccc(NCC5CCOCC5)c([N+](=O)[O-])c4)c(Oc4cnc5[nH]ccc5c4)c3)CC2)=C(c2ccc(Cl)cc2)C1 [Venetoclax] + Cc1cc2ncnn2cc1Nc1ncc2c(n1)n(C1CCOCC1)c(=O)n2C [AZD7648] (first compound max 1 µM, 7x7, partner max 10 µM) | 0.171 | 0.18 | 0.273 | 0.41 | 0.515 | 0.284 | 0.785 | 0.204 | 0.192 | 0.229 | 0.693 | 0.357 | 0.24 | 0.445 | 0.401 | 0.444 | 0.157 | 0.137 | 0.126 | 0.109 |
| CC1(C)CCC(CN2CCN(c3ccc(C(=O)NS(=O)(=O)c4ccc(NCC5CCOCC5)c([N+](=O)[O-])c4)c(Oc4cnc5[nH]ccc5c4)c3)CC2)=C(c2ccc(Cl)cc2)C1 [Venetoclax] + Cn1cnc2c(F)c(Nc3ccc(Br)cc3Cl)c(C(=O)NOCCO)cc21 [Selumetinib] (first compound max 1 µM, 7x7, partner max 3 µM) | 0.0891 | 0.16 | 0.186 | 0.415 | 0.543 | 0.566 | 0.804 | 0.731 | 0.175 | 0.727 | 0.578 | 0.443 | 0.127 | 0.396 | 0.324 | 0.432 | 0.528 | 0.294 | 0.131 | 0.316 |
